target: STIM1 and Orai1 in human embryonic kidney 293 cells (HEK293 cells) (Homo sapiens, UniProt Q96D31); assay: not given; details: HEK293 co-expressing STIM1 and Orai1; cited from earlier work
Sequence (Q96D31 whole entry): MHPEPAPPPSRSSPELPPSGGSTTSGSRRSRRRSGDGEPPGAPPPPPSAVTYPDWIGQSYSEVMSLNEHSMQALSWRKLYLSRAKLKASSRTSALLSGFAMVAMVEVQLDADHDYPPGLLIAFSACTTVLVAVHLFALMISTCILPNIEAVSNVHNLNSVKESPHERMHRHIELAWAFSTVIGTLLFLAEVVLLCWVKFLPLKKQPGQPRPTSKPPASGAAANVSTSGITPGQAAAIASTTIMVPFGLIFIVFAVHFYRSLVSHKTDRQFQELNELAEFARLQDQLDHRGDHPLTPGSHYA

| SMILES | block of store-dependent Ca2+ entry |
| --- | --- |
| NCCOB(c1ccccc1)c1ccccc1 [2-aminoethoxydiphenylborate] | completely blocked |

tested on: RBL-2H3 cells; assay: Fluorescence-based assay of store-operated calcium entry in RBL-2H3 cells; assay type: cell-based; details: Rattus norvegicus, thapsigargin, 50% inhibition of Upslope
Method: B. Fluorescence-Based Assay of Store-Operated Calcium Entry in RBL-2H3 Cells.
RBL-2H3 cells were obtained from ATCC and maintained in complete medium with 10% FBS at 37° C./6% CO2.
(§1) The day prior to performing the assay, RBL-2H3 cells are plated in 50 μL of complete medium in a 384 well plate. Cells are grown at 37° C./6% CO2 overnight and grow to 50-60% confluence by the next day. On the assay day, 1.5 μM Fluo-4-AM dye (Invitrogen) in complete medium is added and incubated for 1 hour at RT. Cells are washed twice in Ca^2+-free HBSS buffer and 35 μL Ca^2+-free HBSS buffer is added to each well. 10 μL of a test compound prepared in a Ca^2+-free HBSS solution at 4.5× of the desired concentration is added to a well and incubated for 5 minutes at RT. 10 μL of thapsigargin prepared in a Ca^2+-free HBSS solution at 5.5× of the desired concentration (5.5 uM) is added to each well and incubated for an additional 25 minutes. The initial baseline fluorescence signal is measured with a FLIPR^384 (Molecular Devices) plate reader. 5 μL of 12× calcium in HBSS (12 mM) is added and changes in cellular fluorescence are measured with the FLIPR^384 plate reader. In each well, the change in the fluorescent signal as a function of time due to calcium entry into the cell is determined by calculating the difference between the fluorescent signal measured 7 seconds after calcium addition and the initial baseline fluorescence signal at time zero (t=0). This parameter is designated Upslope. The IC50 value is calculated as the concentration at which 50% of the Upslope is inhibited.

| SMILES | IC50 |
| --- | --- |
| Cc1ccc(-c2csc(NC(=O)c3cccc(F)c3)c2C(=O)O)s1 [A] | 1 to 10 µM |
| O=C(Nc1scc(-c2ccc(Cl)s2)c1C(=O)O)c1cc2ccccc2o1 [B] | ≤ 0.5 µM |
| Cc1csc(-c2csc(NC(=O)c3cccc(F)c3)c2C(=O)O)n1 [C] | 1 to 10 µM |
| O=C(Nc1scc(-c2nc3ccccc3n2C(F)F)c1C(=O)O)c1cc2ccccc2o1 [Compound I] | 1 to 10 µM |
| COc1ccc(-c2csc(NC(=O)c3cccc(F)c3)c2C(=O)O)cn1 [D] | 1 to 10 µM |
| COc1ccc(-c2csc(NC(=O)c3cc4ccccc4o3)c2C(=O)O)cn1 [E] | 1 to 10 µM |
| O=C(Nc1scc(-c2cnc(C(F)(F)F)nc2)c1C(=O)O)c1cc2ccccc2o1 [F] | ≤ 0.5 µM |
| O=C(Nc1scc(-c2c[nH]c3ccccc23)c1C(=O)O)c1cccc(F)c1 [H] | 1 to 10 µM |
| O=C(Nc1scc(-c2ccc3scnc3c2)c1C(=O)O)c1cc2ccccc2o1 [J] | ≤ 0.5 µM |
| Cc1ccc(-c2csc(NC(=O)c3cc4ccccc4o3)c2C(=O)O)c2ccccc12 [K] | 1 to 10 µM |
| Cc1ccc(-c2csc(NC(=O)c3cc4ccccc4o3)c2C(=O)O)c2cccnc12 [L] | ≤ 0.5 µM |

tested on: Jurkat cells; assay: not given; details: Jurkat cells and colon cancer cells; cited from earlier work

| SMILES | inhibition of SOCE | inhibition of proliferation |
| --- | --- | --- |
| Cc1nnsc1C(=O)Nc1ccc(-n2nc(C(F)(F)F)cc2C(F)(F)F)cc1 [BTP-2] | inhibits | inhibits |

tested on: JR251 or RBL cells; assay: Store-operated calcium entry IC50 in either JR251 or RBL cells; assay type: cell-based; details: not given
Method: (§2) The day prior to performing the assay Orai1/STIM1 stable cells were plated in 50 μL of complete medium at 90-95% confluence in a 384 well plate. Cells were grown at 37° C./6% CO2 overnight. On the day of the assay, 1.5 μM fluo-4-AM (Invitrogen) in complete medium was added to the cells, which were then incubated for 1 hour at RT. Cells were washed once in Ca^2+-free HBSS (Hank's buffered saline solution) and 35 μl of Ca^2+-free HBSS was added to each well. Test compounds were added to wells in a 10 μL Ca^2+-free HBSS solution, prepared at 4.5× the desired final concentration, and incubated for 30 minutes at RT. The initial baseline fluorescence signal was then measured with a FLIPR^384 (Molecular Devices) plate reader. Calcium entry was initiated by adding 5 μl of 10× CaCl2 (10 mM) in HBSS, and changes in cellular fluorescence were measured with the FLIPR^384 plate reader. In each well, the magnitude of the fluorescence signal as a result of calcium entry into the cell was determined by calculating the difference between the peak fluorescence signal measured after calcium addition and the initial baseline fluorescence signal (designated Peak-Basal). IC50 values were typically calculated as the concentration that inhibited 50% of the Peak-Basal signal (Table A).
as §1

| SMILES | IC50 |
| --- | --- |
| Cc1nnsc1C(=O)Nc1scc(-c2cnn(-c3ccc(Cl)cc3)c2)c1C(=O)O [4-(1-(4-chlorophenyl)-1H-pyrazol-4-yl)-2-(4-methyl-1,2,3-thiadiazole-5-carboxamido)thiophene-3-carboxylic acid] | < 10 µM |
| O=C(Nc1scc(-c2cnn(-c3ccc(Cl)cc3)c2)c1C(=O)O)c1cnccn1 [4-(1-(4-chlorophenyl)-1H-pyrazol-4-yl)-2-(pyrazine-2-carboxamido)thiophene-3-carboxylic acid] | < 10 µM |
| O=C(Nc1scc(-c2cnn(-c3ccc(Cl)cc3)c2)c1C(=O)O)c1ccnnc1 [4-(1-(4-chlorophenyl)-1H-pyrazol-4-yl)-2-(pyridazine-4-carboxamido)thiophene-3-carboxylic acid] | < 10 µM |
| O=C(Nc1scc(-c2cnn(-c3ccc(Cl)cc3)c2)c1C(=O)O)c1cncnc1 [4-(1-(4-chlorophenyl)-1H-pyrazol-4-yl)-2-(pyrimidine-5-carboxamido)thiophene-3-carboxylic acid] | < 10 µM |
| O=C(Nc1scc(-c2nc3ccccc3n2C(F)F)c1C(=O)O)c1cccc(F)c1 [4-(1-(difluoromethyl)-1H-benzo[d]imidazol-2-yl)-2-(3-fluorobenzamido)thiophene-3-carboxylic acid] | < 10 µM |
| Cc1nnsc1C(=O)Nc1scc(-c2c(C)nn(-c3ccccc3)c2C)c1C(=O)O [4-(3,5-dimethyl-1-phenyl-1H-pyrazol-4-yl)-2-(4-methyl-1,2,3-thiadiazole-5-carboxamido)thiophene-3-carboxylic acid] | < 10 µM |
| Cc1nc(N2CCCCC2)ncc1-c1csc(NC(=O)c2cnccn2)c1C(=O)O [4-(4-methyl-2-(piperidin-1-yl)pyrimidin-5-yl)-2-(pyrazine-2-carboxamido)thiophene-3-carboxylic acid] | < 10 µM |
| Cc1nc(N2CCCCC2)ncc1-c1csc(NC(=O)c2ccnnc2)c1C(=O)O [4-(4-methyl-2-(piperidin-1-yl)pyrimidin-5-yl)-2-(pyridazine-4-carboxamido)thiophene-3-carboxylic acid] | < 10 µM |
| Cc1nc(N2CCCCC2)ncc1-c1csc(NC(=O)c2cncnc2)c1C(=O)O [4-(4-methyl-2-(piperidin-1-yl)pyrimidin-5-yl)-2-(pyrimidine-5-carboxamido)thiophene-3-carboxylic acid] | < 10 µM |
| O=C(CCc1cccc(F)c1)Nc1scc(-c2ccc(Cl)nc2)c1C(=O)O [4-(6-chloropyridin-3-yl)-2-(3-(3-fluorophenyl)propanamido)thiophene-3-carboxylic acid] | < 10 µM |
| O=C(Nc1scc(-c2ccc(Cl)nc2)c1C(=O)O)c1cccc(F)c1 [4-(6-chloropyridin-3-yl)-2-(3-fluorobenzamido)thiophene-3-carboxylic acid] | < 10 µM |
| O=C(Nc1scc(-c2cc3ccccc3s2)c1C(=O)O)c1cc2ccccc2o1 [4-(benzo[b]thiophen-2-yl)-2-(benzofuran-2-carboxamido)thiophene-3-carboxylic acid] | < 10 µM |
| O=C(Nc1scc(-c2ccc3nonc3c2)c1C(=O)O)c1cc2ccccc2o1 [4-(benzo[c][1,2,5]oxadiazol-5-yl)-2-(benzofuran-2-carboxamido)thiophene-3-carboxylic acid] | < 10 µM |
| O=C(Nc1scc(-c2nc3ccccc3s2)c1C(=O)O)c1cc2ccccc2o1 [4-(benzo[d]thiazol-2-yl)-2-(benzofuran-2-carboxamido)thiophene-3-carboxylic acid] | < 10 µM |
| O=C(Nc1scc(-c2ccc3scnc3c2)c1C(=O)O)c1cc2ccccc2o1 [4-(benzo[d]thiazol-5-yl)-2-(benzofuran-2-carboxamido)thiophene-3-carboxylic acid] | < 10 µM |
| O=C(Nc1scc(-c2cnccn2)c1C(=O)O)c1ccnnc1 [4-(pyrazin-2-yl)-2-(pyridazine-4-carboxamido)thiophene-3-carboxylic acid] | < 10 µM |
| O=C(Nc1scc(-c2cccs2)c1C(=O)O)c1ccccc1Cl [5′-(2-chlorobenzamido)-2,3′-bithiophene-4′-carboxylic acid] | < 10 µM |
| Cc1ccc(-c2csc(NC(=O)c3cccc(F)c3)c2C(=O)O)s1 [5′-(3-fluorobenzamido)-5-methyl-2,3′-bithiophene-4′-carboxylic acid] | < 10 µM |
| O=C(Nc1scc(-c2cccs2)c1C(=O)O)c1ccc(F)cc1 [5′-(4-fluorobenzamido)-2,3′-bithiophene-4′-carboxylic acid] | < 10 µM |
| O=C(Nc1scc(-c2ccc(Br)s2)c1C(=O)O)c1cc2ccccc2o1 [5′-(benzofuran-2-carboxamido)-5-bromo-2,3′-bithiophene-4′-carboxylic acid] | < 10 µM |
| O=C(Nc1scc(-c2ccc(Cl)s2)c1C(=O)O)c1cc2ccccc2o1 [5′-(benzofuran-2-carboxamido)-5-chloro-2,3′-bithiophene-4′-carboxylic acid] | < 10 µM |
| Cc1ccc(-c2csc(NC(=O)c3cc4ccccc4o3)c2C(=O)O)s1 [5′-(benzofuran-2-carboxamido)-5-methyl-2,3′-bithiophene-4′-carboxylic acid] | < 10 µM |
| COc1ccc(/C=C/C(=O)Nc2scc(-c3cccs3)c2C(=O)O)cc1OC [(E)-5′-(3-(3,4-dimethoxyphenyl)acrylamido)-2,3′-bithiophene-4′-carboxylic acid] | < 10 µM |
| O=C(Nc1cc(-c2nc3ccccc3[nH]2)cs1)c1cccc(F)c1 [N-(4-(1H-benzo[d]imidazol-2-yl)thiophen-2-yl)-3-fluorobenzamide] | < 10 µM |

tested on: not listed separately; assay: Fluorescence-based assay of store-operated calcium entry in Orai1/STIM1 stable cells (Table A JR251); assay type: cell-based; details: Homo sapiens, 50% inhibition of Peak-Basal fluorescence signal
Method: A. Fluorescence-Based Assay of Store-Operated Calcium Entry in Orai1/STIM1 Stable Cells.
Cells stably expressing recombinant human STIM1 and Orai1 were generated by transfecting a human Orai1 expression plasmid (pcDNA3.1-Orai1-cmyc) into HEK-293 cells stably overexpressing human STIM1 (Roos et al. 2005 JCB 169(3): 435-445). Colonies of cells stably expressing both STIM1 and Orai1 proteins were selected and then subcloned by limiting dilution. Cells were cultured at 37° C./6% CO2 in complete medium with 10% FBS and appropriate selection markers.
as §2

| SMILES | IC50 |
| --- | --- |
| O=C(Nc1scc(-c2cnc(C(F)(F)F)nc2)c1C(=O)O)c1cc2ccccc2o1 [F] | ≤ 0.5 µM |
| O=C(CCc1cccc(F)c1)Nc1scc(-c2ccc(Cl)nc2)c1C(=O)O [G] | 1 to 10 µM |
| O=C(Nc1scc(-c2ccc3scnc3c2)c1C(=O)O)c1cc2ccccc2o1 [J] | ≤ 0.5 µM |
| Cc1ccc(-c2csc(NC(=O)c3cc4ccccc4o3)c2C(=O)O)c2ccccc12 [K] | ≤ 0.5 µM |
| Cc1ccc(-c2csc(NC(=O)c3cc4ccccc4o3)c2C(=O)O)c2cccnc12 [L] | ≤ 0.5 µM |
